Assay results: patent US20150307532A1, “THIENOPYRIMIDINE INHIBITORS OF […] AND/OR […] PYROPHOSPHATE SYNTHASE” (THE ROYAL INSTITUTION FOR THE ADVANCEMENT OF …, priority 2012, published 2015)
Where two headings read alike, the source gives them in different places. Each block holds one compound with its values, some of them ahead of it.

Experiments:
[1] = biological target: T1, human recombinant FPPS (Homo sapiens, UniProt P14324)
T1 sequence (P14324 1-419): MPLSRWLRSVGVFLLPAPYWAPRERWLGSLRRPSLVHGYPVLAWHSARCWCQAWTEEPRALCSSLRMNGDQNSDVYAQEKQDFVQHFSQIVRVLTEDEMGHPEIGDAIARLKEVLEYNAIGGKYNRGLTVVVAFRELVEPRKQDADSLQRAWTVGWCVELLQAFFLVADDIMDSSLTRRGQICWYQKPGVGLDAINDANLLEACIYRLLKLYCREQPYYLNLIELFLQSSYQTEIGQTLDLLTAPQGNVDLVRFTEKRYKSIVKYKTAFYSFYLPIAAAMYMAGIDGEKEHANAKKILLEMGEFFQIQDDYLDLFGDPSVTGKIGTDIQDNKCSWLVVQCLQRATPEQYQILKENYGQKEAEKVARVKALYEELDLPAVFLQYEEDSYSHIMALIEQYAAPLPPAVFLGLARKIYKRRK

[2] = system: Human neuroblastomas SH-SY5Y cell line; experiment: Lactate dehydrogenase (LDH) activity / toxicity in neurons; format: cell-based
Procedure: (§1) The commercially available INNOTEST® PHOSPHO-TAU(181P) solid-phase enzyme immunoassay was used. In this assay, the phosphorylated Tau protein or fragments are captured by a first monoclonal human specific antibody, HT7 (IgG1). Human immortalized neurons were treated with various compounds at […] and incubated with biotinylated AT270 (IgG1) monoclonal. This antigen-antibody complex is then detected by a peroxidase-labeled streptavidin. After addition of substrate working solution, samples develop a color. The color intensity is a measure for the amount of phosphorylated Tau protein in the sample. This assay has been standardized in numerous research laboratories (for examples see Vanderstichele, H. et al. Alzheimer's & Dementia 2012, 8, 65-73; Zimmermann, R. et al. Journal of Alzheimer's Diseases 2011, 25, 739-745; Blennow, K. et al. Molecular and Chemical Neuropathology 1995, 26, 231-245). Human neuroblastomas SH-SY5Y cell line were used and purchased at the ATCC under the label CRL2266. All compounds were tested in three fixed concentrations at 100 nM, 1 μM and 100 μM in duplicates. We used the 6 well culture plates to grown a significant density of neurons (330,000 cells/well). Cells were grown to 80% confluence in MEM-F12 media with 10% fetal bovine serum, the exposed for 24 hours to the different inhibitors. After one day, the supernatant was removed (and saved at −20° C.). The cell are washed repeatedly in PBS buffer and saved at −80° C. ELISA assays were performed on neuronal cell homogenates using a standardized assay developed by INNOGENETICS called Innotest Total Tau also refers to as the hTau assay and Innotest phospho-Tau (P181). Assays were performed as per manufacturer protocol. The concentration units are in pg of P-Tau per μg of total protein in the cell homogenate. […]; compounds which cause stress or damage to the neurons stimulate the production of P-Tau protein. Lactate dehydrogenase (LDH) activity was measured using a commercial kit; the maximum toxicity was based on % lactic acid dehydrogenases activity in the medium; the control was set at zero.

[3] = system: phosphorylated Tau protein; experiment: Phospho-Tau bioassay (INNOTEST PHOSPHO-TAU(181P) ELISA) in human immortalized neurons; format: cell-based; conditions: compound 100 nM; for P-Tau: 24 hours, SH-SY5Y cell homogenate; for Ratio P/T: P-Tau/T-Tau
[4] = system: total Tau (T-Tau); experiment: Total Tau ELISA (Innotest Total Tau, hTau assay) in human immortalized neurons; format: cell-based; conditions: compound 100 nM, 24 hours, SH-SY5Y cell homogenate
Procedure: as §1

[5] = read-out: IC50 (μM) in hFPPS Method 2, ~1 nM hFPPS, 0.2 μM GPP and IPP

Structure (SMILES): Cc1ccc(-c2cc3c(NC(P(=O)(O)O)P(=O)(O)O)ncnc3s2)cc1 [Example 5-1]
IC50 [1, 5]: 0.022 µM

Structure (SMILES): O=P(O)(O)C(Nc1ncnc2sc(-c3ccc(C(F)(F)F)cc3)cc12)P(=O)(O)O [Example 6-1, (((6-(4-(trifluoromethyl)phenyl)thieno[2,3-d]pyrimidin-4-yl)amino)methylene)diphosphonic acid]
IC50 [1, 5]: 0.021 µM

Structure (SMILES): O=P(O)(O)C(Nc1ncnc2sc(-c3ccc(C4CC4)cc3)cc12)P(=O)(O)O [Example 7-1, (((6-(4-cyclopropylphenyl)thieno[2,3-d]pyrimidin-4-yl)amino)methylene)diphosphonic acid]
IC50 [1]: 0.036 µM

Structure (SMILES): COc1ccc(-c2cc3c(NC(P(=O)(O)O)P(=O)(O)O)ncnc3s2)cc1 [Example 8-1, (((6-(4-methoxyphenyl)thieno[2,3-d]pyrimidin-4-yl)amino)methylene)diphosphonic acid]
IC50 [1, 5]: 0.015 µM

Structure (SMILES): O=P(O)(O)C(Nc1ncnc2sc(-c3ccc4ccccc4c3)cc12)P(=O)(O)O [Example 10-1]
IC50 [1, 5]: 0.063 µM

Structure (SMILES): O=P(O)(O)C(Nc1ncnc2sc(-c3ccc(OC4CC4)cc3)cc12)P(=O)(O)O [Example 11-1, (((6-(4-cyclopropoxyphenyl)thieno[2,3-d]pyrimidin-4-yl)amino)methylene)diphosphonic acid]
LDH ([2]; human, 24 h, 100 nM): 0% | P-Tau [3]: 0.30 pg of P-Tau per μg of total protein | Ratio P/T [3]: 0.007 | T-Tau [4]: 31 pg/µg protein

Structure (SMILES): O=C(O)Cn1c(C(=O)O)cc2ccc3ccccc3c21 [Inhibitor 1]
LDH ([2]; human, 24 h, 100 nM): 3% | P-Tau [3]: 0.30 pg of P-Tau per μg of total protein | T-Tau [4]: 65 pg/µg protein

Structure (SMILES): O=P(O)(O)C(O)(Cc1cccnc1)P(=O)(O)O [Risedronic acid]
Toxicity ([2]; compound 100 nM, based on LDH): high | LDH ([2]; compound 100 nM, % lactic acid dehydrogenases activity in the medium, control set at zero): 60% | toxicity to neurons ([2]; human immortalized neurons): highly toxic | P-Tau [3]: 0.17 pg of P-Tau per μg of total protein | T-Tau [4]: 38 pg/µg protein

Structure (SMILES): O=P(O)(O)C(O)(Cn1ccnc1)P(=O)(O)O [Zoledronic acid]
toxicity to neurons [2]: highly toxic | LDH ([2]; human, 24 h, 100 nM): 60% | P-Tau [3]: 0.19 pg of P-Tau per μg of total protein | T-Tau [4]: 34 pg/µg protein

The next lines start with results.

IC50 [1, 5]: 0.011 µM
Structure (SMILES): O=P(O)(O)C(Nc1ncnc2sc(-c3ccc(C4CC4(F)F)cc3)cc12)P(=O)(O)O (stereo not drawn) [Example 13-1, (((6-(4-(2,2-difluorocyclopropyl)phenyl)thieno[2,3-d]pyrimidin-4-yl)amino)methylene)diphosphonic acid]

IC50 [1]: 29 µM
Structure (SMILES): O=P(O)(O)CNc1ncnc2sc(-c3ccc(C4CC4)cc3)cc12 [Example 16-1, (((6-(4-cyclopropylphenyl)thieno[2,3-d]pyrimidin-4-yl)amino)methyl)phosphonic acid]
LDH ([2]; human, 24 h, 100 nM): 7% | P-Tau [3]: 0.35 pg of P-Tau per μg of total protein | Ratio P/T [3]: 0.007 | T-Tau [4]: 47 pg/µg protein

IC50 [1, 5]: 4.5 µM
Structure (SMILES): Cc1ccc(-c2cc3c(NCP(=O)(O)O)ncnc3s2)cc1 [Example 18-1, (((6-(p-tolyl)thieno[2,3-d]pyrimidin-4-yl)amino)methyl)phosphonic acid]

IC50 [1]: 2.7 µM
Structure (SMILES): Cc1ccc(-c2sc3ncnc(NCP(=O)(O)O)c3c2N)cc1 [Example 21-1, (((5-amino-6-(p-tolyl)thieno[2,3-d]pyrimidin-4-yl)amino)methyl)phosphonic acid]

IC50 [1]: 40 µM
Structure (SMILES): Cc1ccc(-c2cc3c(N[C@H](Cc4ccccc4)C(=O)O)ncnc3s2)cc1 [Example 33-1]

IC50 [1]: 4.2 µM
Structure (SMILES): Cc1ccc(-c2cc3c(NC(c4ccccc4)P(=O)(O)O)ncnc3s2)cc1 (stereo not drawn) [Example 36-1, (phenyl((6-(p-tolyl)thieno[2,3-d]pyrimidin-4-yl)amino)methyl)phosphonic acid]

IC50 [1]: 1.3 µM
Structure (SMILES): Cc1ccc(-c2cc3c(NC(c4ccccc4)P(=O)(O)O)ncnc3s2)cc1Cl (stereo not drawn) [Example 37-1, (((6-(3-chloro-4-methylphenyl)thieno[2,3-d]pyrimidin-4-yl)amino)(phenyl)methyl)phosphonic acid]

IC50 [1]: 10 µM
Structure (SMILES): Cc1ccc(-c2sc3ncnc(NCP(=O)(O)O)c3c2N)cc1Cl [Example 41-1]
